What is called IC50 is the concentration at which inhibition is half-maximal.

Here are results for 26 molecules from patent US10035777B2, “Heterocyclic kinase inhibitors” (priority 2014, dated 2018).

The target in one test is GST-Xa-hAAK1 (Homo sapiens (Human), UniProt Q2M2I8). Description: biochemical.
Sequence of GST-Xa-hAAK1 (Q2M2I8 whole entry): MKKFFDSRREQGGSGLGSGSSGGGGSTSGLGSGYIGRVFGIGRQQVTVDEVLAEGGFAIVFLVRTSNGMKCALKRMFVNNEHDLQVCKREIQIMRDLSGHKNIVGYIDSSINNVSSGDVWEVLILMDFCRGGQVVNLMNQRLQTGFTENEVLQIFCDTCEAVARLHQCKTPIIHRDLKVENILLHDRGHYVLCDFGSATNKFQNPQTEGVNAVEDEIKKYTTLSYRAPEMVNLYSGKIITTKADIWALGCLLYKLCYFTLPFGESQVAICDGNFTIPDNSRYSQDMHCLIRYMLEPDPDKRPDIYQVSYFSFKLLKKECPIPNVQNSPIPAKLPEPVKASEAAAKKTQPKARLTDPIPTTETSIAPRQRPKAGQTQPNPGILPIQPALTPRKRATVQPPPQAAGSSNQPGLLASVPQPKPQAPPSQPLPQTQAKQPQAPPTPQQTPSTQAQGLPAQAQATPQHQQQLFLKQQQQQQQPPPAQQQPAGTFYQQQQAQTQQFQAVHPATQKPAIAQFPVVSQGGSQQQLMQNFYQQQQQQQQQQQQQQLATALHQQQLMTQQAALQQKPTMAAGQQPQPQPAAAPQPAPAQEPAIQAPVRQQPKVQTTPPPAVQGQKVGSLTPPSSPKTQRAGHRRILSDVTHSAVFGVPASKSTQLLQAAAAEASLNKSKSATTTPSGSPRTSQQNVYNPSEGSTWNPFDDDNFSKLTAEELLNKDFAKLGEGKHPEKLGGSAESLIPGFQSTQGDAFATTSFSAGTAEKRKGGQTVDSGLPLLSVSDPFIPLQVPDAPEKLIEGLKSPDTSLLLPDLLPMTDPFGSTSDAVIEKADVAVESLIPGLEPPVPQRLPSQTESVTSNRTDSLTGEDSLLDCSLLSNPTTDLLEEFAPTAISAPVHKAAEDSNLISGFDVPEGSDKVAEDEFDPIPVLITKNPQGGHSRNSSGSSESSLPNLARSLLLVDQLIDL
Settings: not given
How it is done: The assays were performed in U-bottom 384-well plates. […] The reactions were initiated by the combination of bacterially expressed, GST-Xa-hAAK1 with substrates and test compounds. The reactions were incubated at room temperature for 3 hours and terminated by adding 60 μl of 35 mM EDTA buffer to each sample. The reactions were analyzed on the Caliper LabChip 3000 (Caliper, Hopkinton, Mass.) by electrophoretic separation of the fluorescent substrate and phosphorylated product. […] Compounds were dissolved at 10 mM in dimethylsulfoxide (DMSO) and evaluated at eleven concentrations. IC50 values were derived by non-linear regression analysis.
In the case of `COc1cc2nc([C@H](N)CC(C)C)[nH]c2cc1-c1ccncc1` [Example 47, (R)-1-(5-methoxy-6-(pyridin-4-yl)-1H-benzo[d]imidazol-2-yl)-3-methylbutan-1-amine], the IC50 came out at 487 nM.

For the molecule `COc1cc2[nH]c(C(N)CC3CCCC3)nc2cc1-c1cnco1` (centres unmarked) [Example 71, 2-cyclopentyl-1-(6-methoxy-5-(oxazol-5-yl)-1H-benzo[d]imidazol-2-yl)ethanamine], the IC50 worked out at 70 nM.

As for `CC(C)C[C@@H](N)c1nc2cc(-c3ccncc3)ccc2[nH]1` [Example 1, (R)-3-methyl-1-(5-(pyridin-4-yl)-1H-benzo[d]imidazol-2-yl)butan-1-amine], the IC50 worked out at 37 nM.

Turning to `N[C@@H](c1nc2cc(-c3ccncc3)ccc2[nH]1)C1CC1` [Example 74, (R)-cyclopropyl (5-(pyridin-4-yl)-1H-benzo[d]imidazol-2-yl)methanamine], the IC50 was 228 nM.

In the case of `CC(C)C[C@@H](N)c1nc2cc(-c3cnco3)ccc2[nH]1` [Example 4, (R)-3-methyl-1-(5-(oxazol-5-yl)-1H-benzo[d]imidazol-2-yl)butan-1-amine], the IC50 was determined as 52 nM.

Turning to `CC(C)C[C@@H](N)c1nc2ccc(-c3ccncc3)cc2n1CC(F)(F)F` [Example 37, (R)-3-methyl-1-(6-(pyridin-4-yl)-1-(2,2,2-trifluoroethyl)-1H-benzo[d]imidazol-2-yl)butan-1-amine], the IC50 amounted to 19 nM.

For `CC(C)C[C@@H](N)c1nc2cc(-c3ccnc4[nH]ccc34)ccc2[nH]1` [Example 6, (R)-1-(5-(1H-pyrrolo[2,3-b]pyridin-4-yl)-1H-benzo[d]imidazol-2-yl)-3-methylbutan-1-amine], the IC50 turned out to be 5 nM.

As for `CC(C)C[C@@H](N)c1nc2cc(-c3cc[nH]n3)ccc2[nH]1` [Example 3, (R)-1-(5-(1H-pyrazol-3-yl)-1H-benzo[d]imidazol-2-yl)-3-methylbutan-1-amine], the IC50 was 56 nM.

Still in this test, the particulars now being: ATP 22 μM; GST-Xa-hAAK1 3.5 nM; room temperature for 3 hours; Caliper LabChip 3000; read-out: AAK1 IC50.
`NC(CC(C(F)(F)F)C(F)(F)F)c1nc2ccc(-c3cnco3)cc2[nH]1` (centres unmarked) [Example 104, 4,4,4-trifluoro-1-(6-(oxazol-5-yl)-1H-benzo[d]imidazol-2-yl)-3-(trifluoromethyl)butan-1-amine]: the IC50 turned out to be 381 nM.

Turning to `CC(C)C[C@@H](N)c1nc2ccc(-c3cnco3)cc2n1CC(F)(F)F` [Example 36, (R)-3-methyl-1-(6-(oxazol-5-yl)-1-(2,2,2-trifluoroethyl)-1H-benzo[d]imidazol-2-yl)butan-1-amine], the half-inhibitory concentration (IC50) was determined as 172 nM.

As for `CC(C)C[C@H](N)c1nc2cc(-c3cnco3)ccc2[nH]1` [Example 5, (S)-3-methyl-1-(5-(oxazol-5-yl)-1H-benzo[d]imidazol-2-yl)butan-1-amine], the half-inhibitory concentration (IC50) was found to be 93 nM.

For `CCn1c([C@H](N)CC(C)C)nc2cc(-c3cnco3)ccc21` [Example 46, (R)-1-(1-ethyl-5-(oxazol-5-yl)-1H-benzo[d]imidazol-2-yl)-3-methylbutan-1-amine], the IC50 stood at 1540 nM.

On to `CCn1c([C@H](N)CC(C)C)nc2cc(-c3ccncc3)ccc21` [Example 45, (R)-1-(1-ethyl-5-(pyridin-4-yl)-1H-benzo[d]imidazol-2-yl)-3-methylbutan-1-amine], for which the IC50 is 749 nM.

Regarding `COc1cc(-c2cnco2)cc2nc([C@H](N)CC(C)C)[nH]c12` [Example 21, (R)-1-(7-methoxy-5-(oxazol-5-yl)-1H-benzo[d]imidazol-2-yl)-3-methylbutan-1-amine], the IC50 stood at 33 nM.

For `CC(C)CC(N)c1nc2cc(-c3ccncc3)ccc2s1` (centres unmarked) [Example 95, 3-methyl-1-(5-(pyridin-4-yl)benzo[d]thiazol-2-yl)butan-1-amine], the IC50 was 100 nM.

As to `COc1cc2[nH]c(C(C)(N)CC(C)C)nc2cc1-c1cnco1` (centres unmarked) [Example 108, 2-(6-methoxy-5-(oxazol-5-yl)-1H-benzo[d]imidazol-2-yl)-4-methylpentan-2-amine], the IC50 was 60 nM.

Turning to `NC(CC(C(F)(F)F)C(F)(F)F)c1nc2cc(-c3ccncc3)ccc2o1` (centres unmarked) [Example 91, 4,4,4-trifluoro-1-(5-(pyridin-4-yl)benzo[d]oxazol-2-yl)-3-(trifluoromethyl)butan-1-amine], the IC50 worked out at 391 nM.

`CN[C@H](CC(C)C)c1nc2ccc(-c3cnco3)cc2[nH]1` [Example 101, (R)-N,3-dimethyl-1-(6-(oxazol-5-yl)-1H-benzo[d]imidazol-2-yl) butan-1-amine]: the IC50 is 34 nM.

As to `COc1cnccc1-c1ccc2oc(C(N)CC(C)C)nc2c1` (centres unmarked) [Example 94, 1-(5-(3-methoxypyridin-4-yl)benzo[d]oxazol-2-yl)-3-methylbutan-1-amine], the IC50 stood at 294 nM.

Consider `COc1cnccc1-c1ccc2[nH]c([C@H](N)CC(C)C)nc2c1` [Example 11, (R)-1-(5-(3-methoxypyridin-4-yl)-1H-benzo[d]imidazol-2-yl)-3-methylbutan-1-amine], for which the IC50 was 93 nM.

Take `CC(C)C[C@@H](N)c1nc2cc(-c3ccncc3F)ccc2[nH]1` [Example 10, (R)-1-(5-(3-fluoropyridin-4-yl)-1H-benzo[d]imidazol-2-yl)-3-methylbutan-1-amine]: the IC50 came to 44 nM.

For the molecule `CC(C)C[C@@H](N)c1nc2cc(-c3ccnc(N)c3)ccc2[nH]1` [Example 18, (R)-4-(2-(1-amino-3-methylbutyl)-1H-benzo[d]imidazol-5-yl)pyridin-2-amine], the IC50 was 19 nM.

For the molecule `CC(C)CCc1nc2ccc(-c3ccncc3)cc2[nH]1` [Example 106, 2-isopentyl-6-(pyridin-4-yl)-1H-benzo[d]imidazole], the IC50 worked out at 115 nM.

For the molecule `CC(C)CC(N)c1nc2ccc(-c3ccncc3)cc2o1` (centres unmarked) [Example 84, 3-methyl-1-(6-(pyridin-4-yl)benzo[d]oxazol-2-yl)butan-1-amine], the IC50 was 438 nM.

The same test, now with this note: read-out: AAK1 IC50.
With `C/C(=C\C(C)C)c1nc2cc(-c3ccncc3)ccc2o1` [Example 86, (E)-2-(4-methylpent-2-en-2-yl)-5-(pyridin-4-yl)benzo[d]oxazole], the IC50 stood at 2310 nM.

As to `CC(C)C[C@@H](N)c1nc2cc(F)c(-c3cnco3)cc2[nH]1` [Example 31, (R)-1-(5-fluoro-6-(oxazol-5-yl)-1H-benzo[d]imidazol-2-yl)-3-methylbutan-1-amine], the IC50 came to 32 nM.
